The values below come from the NIST ThermoML archive (doi:10.1021/acs.jced.5b00882).

± gives the expanded uncertainty stated by the source.

The conditions of series [1]: for mass density: 298.15 K, 101.33 kPa, Liquid, Pycnometric method.
Series [2] can be described thus: Molar enthalpy of transition or fusion. The note with it: Crystal; DSC.

As usually defined, the mass density is the mass of a sample divided by its volume. `CCCCCO` [pentan-1-ol]: in series [1], the mass density is reported as 811.4 ± 1.5 kg/m3.
Same read-out and setting: the same measure for `CCO` [ethanol]: 785.3 ± 1.5 kg/m3; for `CCCCO` [butan-1-ol]: 806 ± 1.5 kg/m3.
The same measure, in the same setting: the same measure for `CCCCCCCCO` [octan-1-ol]: 821.6 ± 1.5 kg/m3.
`CNC(=O)NC` [1,3-dimethylurea]: the “Molar enthalpy of transition or fusion” value in series [2] worked out at 12.8 ± 0.39 kJ/mol. The Triple point temperature in series [1] (Crystal, DSC) amounted to 376.35 ± 0.93 K.
For `CO` [methanol], in series [1], the mass density is reported as 786.6 ± 0.6 kg/m3.
On to `CCCCCCO` [hexan-1-ol], for which the mass density in series [1] stood at 815.7 ± 1.5 kg/m3.
The same measure, in the same setting: the same measure for `CCCO` [propan-1-ol]: 799.7 ± 1.5 kg/m3; for `CCCCCCCO` [heptan-1-ol]: 819.2 ± 1.5 kg/m3.
